Assays:
human AT1 receptor = biological target: T1, human AT1 receptor (Homo sapiens, UniProt P30556); test: AT1 radioligand binding assay ([Eu]AngII displacement, CHO-K1 membranes); conditions: read-out: pKi at the AT1 receptor (converted)
T1 construct: expressed in transfected cells; host or cells: CHO-K1
T1 sequence (P30556 1-359): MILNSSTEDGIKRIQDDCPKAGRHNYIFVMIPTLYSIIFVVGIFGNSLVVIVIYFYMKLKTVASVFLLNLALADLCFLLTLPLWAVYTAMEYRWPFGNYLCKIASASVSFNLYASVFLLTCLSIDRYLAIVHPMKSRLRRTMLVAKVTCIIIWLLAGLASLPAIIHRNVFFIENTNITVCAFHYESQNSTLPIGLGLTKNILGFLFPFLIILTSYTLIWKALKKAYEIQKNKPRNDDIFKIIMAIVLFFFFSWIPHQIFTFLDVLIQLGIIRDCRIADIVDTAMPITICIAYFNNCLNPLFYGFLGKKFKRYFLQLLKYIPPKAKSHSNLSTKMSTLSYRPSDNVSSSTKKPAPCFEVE
Procedure: These in vitro assays were used to assess the ability of test compounds to bind to the AT1 and the AT2 receptors.
Chinese hamster ovary (CHO-K1) derived cell lines stably expressing the cloned human AT1 or AT2 receptors, respectively, were grown in HAM's-F 12 medium supplemented with 10% fetal bovine serum, 10 μg/ml penicillin/streptomycin, and […] in a 5% CO2 humidified incubator at 37° C. AT2 receptor expressing cells were grown in the additional presence of 100 nM PD123,319 (AT2 antagonist). When cultures reached 80-95% confluence, the cells were washed thoroughly in PBS and lifted with 5 mM EDTA. Cells were pelleted by centrifugation and snap frozen in MeOH-dry ice and stored at −80° C. until further use.
For membrane preparation, cell pellets were resuspended in lysis buffer (25 mM Tris/HCl pH 7.5 at 4° C., 1 mM EDTA, and one tablet of Complete Protease Inhibitor Cocktail Tablets with 2 mM EDTA per 50 mL buffer (Roche cat. #1697498, Roche Molecular Biochemicals, Indianapolis, Ind.)) and homogenized using a tight-fitting Dounce glass homogenizer (10 strokes) on ice. The homogenate was centrifuged at 1000×g, the supernatant was collected and centrifuged at 20,000×g. […] Protein concentration of the membrane suspension was determined by the method described in Bradford (1976) Anal Biochem. 72:248-54. […]

NEP enzyme = biological target: T2, NEP enzyme (Homo sapiens, UniProt P08473); test: In vitro NEP enzyme inhibition assay (fluorogenic peptide substrate); format: biochemical; conditions: read-out: pIC50 for the NEP enzyme (converted)
T2 construct: purchased R&D Systems, Minneapolis, Minn; 1182-ZN
T2 sequence (P08473 52-750 limits assumed): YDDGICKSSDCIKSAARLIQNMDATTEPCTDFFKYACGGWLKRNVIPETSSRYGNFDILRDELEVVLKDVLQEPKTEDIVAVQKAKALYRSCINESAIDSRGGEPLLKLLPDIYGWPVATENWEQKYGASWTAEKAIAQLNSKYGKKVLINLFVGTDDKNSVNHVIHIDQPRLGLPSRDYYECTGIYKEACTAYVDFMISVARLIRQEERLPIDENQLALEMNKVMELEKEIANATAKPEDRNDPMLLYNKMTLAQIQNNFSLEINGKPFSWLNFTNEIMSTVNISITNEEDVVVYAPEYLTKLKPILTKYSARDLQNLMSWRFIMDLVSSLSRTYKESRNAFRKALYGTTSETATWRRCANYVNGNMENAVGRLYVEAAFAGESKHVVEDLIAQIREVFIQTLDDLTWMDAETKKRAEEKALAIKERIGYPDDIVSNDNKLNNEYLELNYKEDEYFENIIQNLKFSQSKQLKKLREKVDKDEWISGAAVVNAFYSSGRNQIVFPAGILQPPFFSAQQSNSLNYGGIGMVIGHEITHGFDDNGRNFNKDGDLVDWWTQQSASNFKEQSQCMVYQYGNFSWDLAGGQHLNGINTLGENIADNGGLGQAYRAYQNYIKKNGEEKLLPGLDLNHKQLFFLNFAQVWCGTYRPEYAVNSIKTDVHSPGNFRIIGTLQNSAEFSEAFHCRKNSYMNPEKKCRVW
Procedure: The inhibitory activities of compounds at human and rat NEP and human ACE were determined using in vitro assays as described below.
Rat NEP was prepared from the kidneys of adult Sprague Dawley rats. Whole kidneys were washed in cold PBS and brought up in ice-cold lysis buffer (1% Triton X-114, 150 mM NaCl, 50 mM Tris pH 7.5; Bordier (1981) J. Biol. Chem. 256:1604-1607) in a ratio of 5 mL of buffer for every gram of kidney. Samples were homogenized using a polytron hand held tissue grinder on ice. Homogenates were centrifuged at 1000×g in a swinging bucket rotor for 5 minutes at 3° C. The pellet was resuspended in 20 mL of ice cold lysis buffer and incubated on ice for 30 minutes. […] Protein concentrations were quantitated using a BCA detection system with BSA as a standard. […]
The assays were performed in 384-well white opaque plates at room temperature using the respective fluorogenic peptides at a concentration of 10 μM in assay buffer (50 mM Tris/HCl at 25° C., 100 mM NaCl, 0.01% Tween-20, 1 μM Zn, 0.025% BSA). […] The rat NEP enzyme preparation was used at a concentration that yielded quantitative proteolysis of 3 μM of Mca-RRL within 20 minutes at room temperature. […]
Plates were read on a fluorometer with excitation and emission wavelengths set to 320 nm and 405 nm, respectively. […]

Ki (human AT1 receptor): < 31.6 nM | IC50 (NEP enzyme): < 1000 nM
SMILES: CCCc1oc(C(=O)N[C@H](Cc2ccccc2)[C@@H](O)C(=O)O)nc1Cc1ccc(-c2ccccc2-c2nnn[nH]2)cc1 [Example 1, (2R,3R)-2-Hydroxy-4-phenyl-3-({5-propyl-4-[2′-(1H-tetrazol-5-yl)-biphenyl-4-ylmethyl]-oxazole-2-carbonyl}amino)butyric Acid]

From patent US8598170B2, “Dual-acting oxazole antihypertensive agents” (Theravance, Inc., priority 2009, dated 2013)
